Experimental findings from ChEMBL document CHEMBL1156345, “Suillusin, a unique benzofuran from the mushroom Suillus granulatus” (J Nat Prod, 2001) are described below.

Assay [1] has as its system Radical scavenging activity. Briefly: Antioxidant activity assessed as DPPH radical scavenging activity at 100 ug/mL. The assay is classed as functional.
The test system of the next assay is UACC-62. Put plainly: Cytotoxicity against human UACC62 cells after 48 hrs by SRB assay. The format is functional, cell-based. To be noted: UACC-62, 48 h.
In a further assay the test system is SW-620. Put plainly: Cytotoxicity against human SW620 cells after 48 hrs by SRB assay. The format is functional, cell-based. To be noted: SW-620, 48 h.
The subject of another assay is HCT-15. Briefly: Cytotoxicity against human HCT15 cells at 30 ug/mL after 48 hrs by SRB assay. The format is functional, cell-based.
The subject of a further assay is A549. Put plainly: Cytotoxicity against human A549 cells at 30 ug/mL after 48 hrs by SRB assay. The format is functional, cell-based.
A further assay concerns SK-OV-3. Put plainly: Cytotoxicity against human SKOV3 cells at 30 ug/mL after 48 hrs by SRB assay. The format is functional, cell-based.
Another assay concerns PC-3. Put plainly: Cytotoxicity against human PC3 cells at 30 ug/mL after 48 hrs by SRB assay. The assay is classed as functional, cell-based.

In brackets after ≈: the same amount, converted by molar mass. Activity calls are given as the source filed them. The calls are words filed in the database; no cut-off is given here.

With `COC(=O)[C@@]12Oc3ccc(O)cc3[C@@H]1C(=O)C(O)=C2c1ccc(O)c(O)c1` [SUILLUSIN], the Activity in assay [1] turned out to be 30%. For the same compound, the results for the IC50 in the assay on UACC-62 and in the assay on SW-620 were 12 µg/mL (≈ 32.4 µM) and 20 µg/mL (≈ 54 µM), respectively. Further, the outcome with HCT-15, with A549, in the assay on SK-OV-3 and in the assay with PC-3 was Active.

Consider VITAMIN E, for which the Activity in assay [1] was 73%.
